Reference: patent publication US20260159497A1, “SOLID FORMS OF A COMPLEMENT FACTOR B INHIBITOR” (Novartis Pharma AG, priority 2022, published 2026)
In brackets after ≈: the same amount, converted by molar mass. Read-outs that look alike come from different tables or passages of the source.

Assays:
[1] = Intrinsic dissolution rate; assay type: physicochemical
[2] = Water content by Karl Fischer titration; assay type: physicochemical; conditions: ambient conditions; relative to total weight of the salt / free form
[3] = Grinding and wet granulation; assay type: physicochemical
Text: Method: Granulate was obtained in solid-state forms. […] Dry the wet-cake under vacuum or at atmospheric pressure. Evaluate solid form and degree of crystallinity by e.g. XRPD and/or DSC.

[4] = Solubility in Simulated Fluids at 37° C.; assay type: physicochemical; conditions: for solubility at 30 min / solubility at 24 h: 37 °C, thermodynamic from solid; for solubility at 30 min: read-out: Solubility (mg/mL) 30 min; for solubility at 24 h: read-out: Solubility (mg/mL) 24 h
Text: Solubility data of Form A (S)-4-(2,2-difluoro-7-((5-methoxy-7-methyl-1H-indol-4-yl)methyl)-7-azaspiro[3.5]nonan-6-yl)benzoic acid, Form B (S)-4-(2,2-difluoro-7-((5-methoxy-7-methyl-1H-indol-4-yl)methyl)-7-azaspiro[3.5]nonan-6-yl)benzoic acid p-toluene sulfonic acid salt, Form C (S)-4-(2,2-difluoro-7-((5-methoxy-7-methyl-1H-indol-4-yl)methyl)-7-azaspiro[3.5]nonan-6-yl)benzoic acid p-toluene sulfonic acid salt, and Form D (S)-4-(2,2-difluoro-7-((5-methoxy-7-methyl-1H-indol-4-yl)methyl)-7-azaspiro[3.5]nonan-6-yl)benzoic acid hydrochloride salt in Simulated Fluids at 37° C.

[5] = Stability of Forms A and B under stress conditions (temperature/humidity, capsules, light)
[6] = Solubility in water and biorelevant buffers at 25° C.; assay type: physicochemical; conditions: 25° C., 24 h; for solubility at 24 h: thermodynamic from solid, read-out: Solubility (mg/mL) S
Method: Purchase sodium taurocholate (NaTC) from supplier. Account for assay. Add amount corresponding to 3 mM to PBS V1. Stir until dissolved. Equilibrate 1 h at 25° C. or 37° C. before use. Dispose after 48 h.
Purchase FaSSIF-V2 from supplier (biorelevant.com). Amount added to PBS-V1 according to Table 1. Stir until dissolved. Equilibrate 1 h at 25° C. or 37° C. before use. Dispose after 48 h.
Purchase FeSSIF-V2 from supplier (biorelevant.com). Amount added to PBS-V1 according to Table 1. Stir until dissolved. Equilibrate 1 h at 25° C. or 37° C. before use. Dispose after 48 h.

[7] = Compression stability (XRPD after compression); assay type: physicochemical; conditions: 4 tons of compression for 5 min
Text: Method: […] Afterwards, characterize the sample by XRPD to detect any change in the solid state.

[8] = Dynamic vapor sorption (DVS) mass change; assay type: physicochemical; conditions: for Mass change by DVS, Desorption (%) / Mass change by DVS, Sorption (%): Table 5, 25 degree C., based on dry weight
Text: [table] The mass change by DVS isotherm (2 cycles 40-0-95-0-40% RH) are in the tables below. The mass change is based on the dry weight of each.

[9] = pH 2.0, 0.01 M HCl, 37° C., 100 rpm, 120 min
[10] = pH 6.5, phosphate buffer 50 mM (PBS-V1), 37° C., 100 rpm, 120 min

COc1cc(C)c2[nH]ccc2c1CN1CCC2(C[C@H]1c1ccc(C(=O)O)cc1)CC(F)(F)C2 [Form A, (S)-4-(2,2-difluoro-7-((5-methoxy-7-methyl-1H-indol-4-yl)methyl)-7-azaspiro[3.5]nonan-6-yl)benzoic acid]
intrinsic dissolution rate ([1]; PBS-V1 (pH 6.5)): 0.0028 mg/min/cm^2
intrinsic dissolution rate ([1]; pH 2.0, 0.01 M HCl): 0.081 mg/min/cm^2
form change after intrinsic dissolution [1, 9]: (No form change)
intrinsic dissolution rate [1, 9]: 0.081 mg · min^−1 · cm^−2
form change after intrinsic dissolution [1, 10]: (No form change)
intrinsic dissolution rate [1, 10]: 0.0028 mg · min^−1 · cm^−2
water content by Karl Fischer titration [2]: 0.15 % w/w
crystallinity from XRPD pattern after grinding ([3]; after grinding): crystallinity decrease
form change after grinding and wet granulation ([3]; dry grinding (2 min and 5 min) and wet granulation (water and ethanol)): did not lead to any form change
solubility at 30 min ([4]; fassgf or other biorelevant, FaSSGF, 30 min): 2.28 mg/mL (≈ 5020 µM)
solubility at 24 h ([4]; fassgf or other biorelevant, FaSSGF, 24 h): > 2 mg/mL
solubility at 30 min ([4]; fassif, FaSSIF, 30 min): 0.24 mg/mL (≈ 528 µM)
solubility at 24 h ([4]; fassif, FaSSIF, 24 h): 0.18 mg/mL (≈ 396 µM)
solubility at 30 min ([4]; fessif, FeSSIF, 30 min): 0.31 mg/mL (≈ 682 µM)
solubility at 24 h ([4]; fessif, FeSSIF, 24 h): 0.31 mg/mL (≈ 682 µM)
solubility at 30 min ([4]; pH 7, water, Water, initial pH 7.00, 30 min): 0.21 mg/mL (≈ 462 µM)
solubility at 24 h ([4]; pH 7, water, Water, initial pH 7.00, 24 h): 0.22 mg/mL (≈ 484 µM)
pH at 24 h ([4]; FaSSGF): 1.61
pH at 24 h ([4]; FaSSIF): 6.48
pH at 24 h ([4]; FeSSIF): 5.00
pH at 24 h ([4]; Water, initial pH 7.00): 7.12
stability in HPMC and HGC capsules ([5]; 50° C. with 11% and 75% RH for 2 weeks): chemically and physically stable
degradation under light stress ([5]; 1200 kLux light stress): about 0.9%
form change by XRPD after humidity exposure ([5]; exposed to 80% or 92% RH for 24 hrs): no change
chemical stability in bulk state ([5]; stored at 50° C. with 11% RH or 75% RH for 1 week): chemically stable
discoloration in bulk state ([5]; stored at 80° C. with 11% RH or 75% RH): slight to medium discoloration
polymorphic form in the stress conditions ([5]; temperature/humidity and light stress conditions): unchanged
pH of solubility sample (pH) ([6]; FaSSGF, pH 1.6): 1.68
pH of solubility sample (pH) ([6]; PBS-V1 + 3 mM NaTC, pH 6.5): 6.51
pH of solubility sample (pH) ([6]; PBS-V1 + 0.3 FeSSIF-V2, pH 6.5): 6.52
pH of solubility sample (pH) ([6]; PBS-V1 + 2.0 FeSSIF-V2, pH 6.5): 6.73
pH of solubility sample (pH) ([6]; PBS-V1 + FaSSIF-V2, pH 6.5): 6.69
pH of solubility sample (pH) ([6]; PBS-V1 + FeSSIF-V2, pH 6.5): 6.74
solubility at 24 h ([6]; fassgf or other biorelevant, FaSSGF, pH 1.6): > 2 mg/mL
solubility at 24 h ([6]; fassgf or other biorelevant, PBS-V1 + 3 mM NaTC, pH 6.5): 0.068 mg/mL
solubility at 24 h ([6]; fassgf or other biorelevant, PBS-V1 + 0.3 FeSSIF-V2, pH 6.5): 0.074 mg/mL
solubility at 24 h ([6]; fassgf or other biorelevant, PBS-V1 + 2.0 FeSSIF-V2, pH 6.5): 0.12 mg/mL
solubility at 24 h ([6]; PBS-V1 + FaSSIF-V2, pH 6.5): 0.072 mg/mL
solubility at 24 h ([6]; PBS-V1 + FeSSIF-V2, pH 6.5): 0.094 mg/mL
solubility at 24 h ([6]; water): 0.052 mg/mL (≈ 114 µM)
pH of solubility sample (pH) ([6]; water): 7.40
form change in XRPD after compression [7]: no form change
moisture absorbed by DVS (absorbs up to) ([8]; 95% RH at 25° C.): up to 0.45%
Mass change by DVS, Desorption (%) ([8]; 0% RH): −0.01%
Mass change by DVS, Sorption (%) ([8]; 0% RH): 0.00%
Mass change by DVS, Desorption (%) ([8]; 10% RH): 0.06%
Mass change by DVS, Sorption (%) ([8]; 10% RH): 0.04%
Mass change by DVS, Desorption (%) ([8]; 20% RH): 0.12%
Mass change by DVS, Sorption (%) ([8]; 20% RH): 0.08%
Mass change by DVS, Desorption (%) ([8]; 30% RH): 0.17%
Mass change by DVS, Sorption (%) ([8]; 30% RH): 0.13%
Mass change by DVS, Desorption (%) ([8]; 40% RH): 0.22%
Mass change by DVS, Sorption (%) ([8]; 40% RH): 0.17%
Mass change by DVS, Desorption (%) ([8]; 50% RH): 0.26%
Mass change by DVS, Sorption (%) ([8]; 50% RH): 0.22%
Mass change by DVS, Desorption (%) ([8]; 60% RH): 0.32%
Mass change by DVS, Sorption (%) ([8]; 60% RH): 0.26%
Mass change by DVS, Desorption (%) ([8]; 70% RH): 0.35%
Mass change by DVS, Sorption (%) ([8]; 70% RH): 0.30%
Mass change by DVS, Desorption (%) ([8]; 80% RH): 0.38%
Mass change by DVS, Sorption (%) ([8]; 80% RH): 0.35%
Mass change by DVS, Desorption (%) ([8]; 90% RH): 0.42%
Mass change by DVS, Sorption (%) ([8]; 90% RH): 0.40%
Mass change by DVS, Desorption (%) ([8]; 95% RH): 0.45%
Mass change by DVS, Sorption (%) ([8]; 95% RH): 0.45%
